In patent US11673876B2, “Substituted aminobenzyl heteroaryl compounds as EGFR and/or PI3K inhibitors” (Mekanistic Therapeutics LLC, priority 2020, dated 2023):

Columns and labels:
PI3Ka = PI3Ka (Homo sapiens (Human), UniProt P42336); test: Z'-LYTE / Adapta kinase assay, PI3Ka; format: biochemical; details: for inhibition at 0.1 µM: read-out: PI3Ka % Inh. @ 100 nM
How it was run: (§1)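 Z'-LYTE FRET-peptide phosphorylation read as coumarin/fluorescein emission ratio (400 nm excitation); Adapta immunoassay detects ADP formation. 60-min kinase reaction, 60-min development, room temperature.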

EGFR = EGFR (Homo sapiens (Human), UniProt P00533); test: Z'-LYTE / Adapta kinase assay, EGFR; format: biochemical; details: for inhibition at 0.1 µM: read-out: EGFR % Inh. @ 100 nM
EGFR, sequence (P00533 25-1210): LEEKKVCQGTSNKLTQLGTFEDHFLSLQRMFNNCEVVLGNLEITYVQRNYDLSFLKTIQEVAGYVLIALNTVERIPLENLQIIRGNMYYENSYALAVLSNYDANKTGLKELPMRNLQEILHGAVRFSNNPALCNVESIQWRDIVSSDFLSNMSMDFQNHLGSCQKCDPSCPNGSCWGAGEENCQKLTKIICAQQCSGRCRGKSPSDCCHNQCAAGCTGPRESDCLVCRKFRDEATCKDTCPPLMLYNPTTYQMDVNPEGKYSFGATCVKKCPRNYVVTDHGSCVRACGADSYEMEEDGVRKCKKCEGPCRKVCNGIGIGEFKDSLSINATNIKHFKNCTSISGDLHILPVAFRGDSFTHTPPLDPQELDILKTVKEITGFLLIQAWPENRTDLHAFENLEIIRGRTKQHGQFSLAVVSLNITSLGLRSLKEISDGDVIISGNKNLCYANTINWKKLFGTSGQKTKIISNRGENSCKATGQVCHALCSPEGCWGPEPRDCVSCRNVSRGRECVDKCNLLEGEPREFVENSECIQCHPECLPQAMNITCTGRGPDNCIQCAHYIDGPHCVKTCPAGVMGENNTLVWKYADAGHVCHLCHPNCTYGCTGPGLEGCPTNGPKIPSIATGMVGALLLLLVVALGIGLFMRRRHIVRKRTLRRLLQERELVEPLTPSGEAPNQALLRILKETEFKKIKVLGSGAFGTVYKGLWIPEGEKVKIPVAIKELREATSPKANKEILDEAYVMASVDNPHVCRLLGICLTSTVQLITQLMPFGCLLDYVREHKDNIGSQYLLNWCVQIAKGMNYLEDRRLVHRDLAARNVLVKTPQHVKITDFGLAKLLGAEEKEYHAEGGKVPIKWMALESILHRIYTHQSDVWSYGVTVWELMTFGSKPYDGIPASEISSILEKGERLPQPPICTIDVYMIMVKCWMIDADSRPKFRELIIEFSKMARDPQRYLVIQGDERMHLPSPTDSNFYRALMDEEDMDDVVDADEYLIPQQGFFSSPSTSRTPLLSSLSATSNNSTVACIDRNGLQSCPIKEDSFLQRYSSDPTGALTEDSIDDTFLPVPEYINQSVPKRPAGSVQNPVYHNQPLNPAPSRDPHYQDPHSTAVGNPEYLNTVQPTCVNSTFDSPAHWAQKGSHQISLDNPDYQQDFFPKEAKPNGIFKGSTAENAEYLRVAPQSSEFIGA
How it was run: as §1

[1] = Metabolic stability in mouse liver microsomes; format: in vitro ADME
Protocol: Working solution: 5 μL of compound and control stock solution (10 mM in dimethyl sulfoxide (DMSO)) were diluted with 495 μL of acetonitrile (ACN) (intermediate solution concentration: 100 μM, 99% ACN)
NADPH Cofactor Preparation: NADPH powder: β-Nicotinamide adenine dinucleotide phosphate reduced form, tetrasodium salt; NADPH·4Na. The appropriate amount of NADPH powder was weighed and diluted into a 10 mM MgCl2 solution (working solution concentration: 10 unit/mL; final concentration in reaction system: 1 unit/mL)
Liver Microsomes Preparation: The appropriate concentrations of microsome working solutions were prepared in 100 mM potassium phosphate buffer. Cold (4° C.) acetonitrile (ACN) containing 200 ng/mL tolbutamide and 200 ng/mL labetalol as internal standards (1S) was used as the stop solution
Assay Procedure: Pre-warm empty ‘Incubation’ plates T60 and NCF60 for 10 minutes. Dilute liver microsomes to 0.56 mg/mL in 100 mM phosphate buffer. Transfer 445 μL microsome working solutions (0.56 mg/mL) into pre-warmed ‘Incubation’ plates T60 and NCF60, Then pre-incubate ‘Incubation’ plates T60 and NCF60 for 10 min at 37° C. with constant shaking. Transfer 54 μL liver microsomes to blank plate, then add 6 μL NAPDH cofactor to blank plate, and then add 180 μL quenching solution to blank plate. Add 5 μL compound working solution (100 μM) into ‘incubation’ plates (T60 and NCF60) containing microsomes and mix 3 times thoroughly.
For the NCF60 plate, add 50 μL of buffer and mix 3 times thoroughly. Start timing; plate will be incubated at 37° C. for 60 min while shaking. In ‘Quenching’ plate T0, add 180 μL quenching solution and 6 μL NAPDH cofactor. Ensure the plate is chilled to prevent evaporation. For the T60 plate, mix 3 times thoroughly, and immediately remove 54 μL mixture for the 0-min time point to ‘Quenching’ plate. Then add 44 μL NAPDH cofactor to incubation plate (T60). Start timing; plate will be incubated at 37° C. for 60 min while shaking. At 5, 10, 20, 30, and 60 min, add 180 μL quenching solution to ‘Quenching’ plates, mix once, and serially transfer 60 μL sample from T60 plate per time point to ‘Quenching’ plates. For NCF60: mix once, and transfer 60 μL sample from the NCF60 incubation to ‘Quenching’ plate containing quenching solution at the 60-min time point. All sampling plates are shaken for 10 min, then centrifuged at 4000 rpm for 20 minutes at 4° C. Transfer 80 μL supernatant into 240 μL HPLC water, and mix by plate shaker for 10 min. Each bioanalysis plate was sealed and shaken for 10 minutes prior to LC-MS/MS analysis.
The equation of first order kinetics was used to calculate T½ and CLint(mic) (μL/min/mg). Equation of first order kinetics: […]
The biological stability of the compounds of the disclosure can be measured by determining its ½ life in the presence microsomes. Presented in Table 5, is the ½ life of selected compounds of the disclosure in the presence of human liver microsomes (HLM) or mouse liver microsomes (MLM) as described above. In Table 5, ½ life is presented as “++++” (value is greater than 60 minutes), “+++” (value is greater than 30 minutes and less than or equal to 60 minutes), “++” (value is greater than 15 minutes and less than or equal to 30 minutes) and “+” (value is 15 minutes or less).

PI3Ka, sequence (P42336 whole entry): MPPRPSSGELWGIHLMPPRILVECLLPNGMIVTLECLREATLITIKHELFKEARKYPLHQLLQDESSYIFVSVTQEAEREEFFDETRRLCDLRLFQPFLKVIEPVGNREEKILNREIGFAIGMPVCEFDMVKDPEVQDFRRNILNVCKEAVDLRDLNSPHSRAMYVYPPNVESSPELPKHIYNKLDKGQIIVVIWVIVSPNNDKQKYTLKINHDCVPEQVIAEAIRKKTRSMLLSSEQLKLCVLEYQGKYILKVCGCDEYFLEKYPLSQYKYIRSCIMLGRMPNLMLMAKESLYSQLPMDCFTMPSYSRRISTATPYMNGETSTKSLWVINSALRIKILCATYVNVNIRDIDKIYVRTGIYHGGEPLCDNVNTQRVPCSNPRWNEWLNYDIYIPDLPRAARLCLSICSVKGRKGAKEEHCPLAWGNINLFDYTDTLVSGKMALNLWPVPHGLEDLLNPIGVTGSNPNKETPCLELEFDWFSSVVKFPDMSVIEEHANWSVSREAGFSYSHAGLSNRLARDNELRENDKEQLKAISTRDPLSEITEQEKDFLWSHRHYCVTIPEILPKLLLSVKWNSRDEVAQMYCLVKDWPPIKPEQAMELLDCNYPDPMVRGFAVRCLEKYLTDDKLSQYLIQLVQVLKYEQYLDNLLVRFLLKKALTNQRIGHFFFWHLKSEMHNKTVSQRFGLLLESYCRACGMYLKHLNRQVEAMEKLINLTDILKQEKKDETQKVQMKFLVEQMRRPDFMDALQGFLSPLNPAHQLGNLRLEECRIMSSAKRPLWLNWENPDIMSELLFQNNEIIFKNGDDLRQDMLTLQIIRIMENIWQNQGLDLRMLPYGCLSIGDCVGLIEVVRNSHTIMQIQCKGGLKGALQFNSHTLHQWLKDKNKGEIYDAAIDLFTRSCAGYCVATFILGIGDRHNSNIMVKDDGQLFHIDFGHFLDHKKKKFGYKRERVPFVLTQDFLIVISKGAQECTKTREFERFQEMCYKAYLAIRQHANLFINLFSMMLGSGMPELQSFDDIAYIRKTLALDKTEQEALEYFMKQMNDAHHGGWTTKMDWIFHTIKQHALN
PI3Ka, sequence (P27986 whole entry partner): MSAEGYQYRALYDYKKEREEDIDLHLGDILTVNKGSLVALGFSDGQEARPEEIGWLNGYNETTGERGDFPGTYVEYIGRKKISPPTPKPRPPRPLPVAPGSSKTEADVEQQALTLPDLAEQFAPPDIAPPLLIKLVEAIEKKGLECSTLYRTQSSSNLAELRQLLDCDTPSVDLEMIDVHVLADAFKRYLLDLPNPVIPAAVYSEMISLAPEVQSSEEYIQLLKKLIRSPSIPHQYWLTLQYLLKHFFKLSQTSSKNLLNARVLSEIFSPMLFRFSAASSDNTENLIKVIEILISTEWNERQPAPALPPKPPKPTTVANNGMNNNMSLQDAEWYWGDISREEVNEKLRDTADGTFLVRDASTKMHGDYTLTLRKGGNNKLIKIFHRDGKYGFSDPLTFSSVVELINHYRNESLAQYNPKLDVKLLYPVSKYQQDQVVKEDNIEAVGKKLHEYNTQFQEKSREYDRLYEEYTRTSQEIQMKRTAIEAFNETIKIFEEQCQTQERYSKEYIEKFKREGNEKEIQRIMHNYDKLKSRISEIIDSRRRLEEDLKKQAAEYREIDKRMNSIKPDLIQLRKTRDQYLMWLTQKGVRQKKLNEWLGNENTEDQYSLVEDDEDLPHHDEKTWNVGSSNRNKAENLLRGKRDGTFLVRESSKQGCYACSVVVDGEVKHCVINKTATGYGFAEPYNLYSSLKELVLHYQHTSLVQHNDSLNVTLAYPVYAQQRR

SMILES	PI3Ka IC50 (nM) (PI3Ka)	inhibition at 0.1 µM (PI3Ka) [%]	IC50 (EGFR) [nM]	inhibition at 0.1 µM (EGFR) [%]	½ life minutes (MLM) [1]	PI3Ka % Inh. @ 100 nM (PI3Ka; 100 nM)	EGFR % Inh. @ 100 nM (EGFR; 100 nM)	IC50 (PI3Ka) [nM]
CS(=O)(=O)Nc1cc(-c2ccc3ncnc(NCc4ccccc4)c3c2)cnc1Cl [Comparative Compound 1, N-[5-[4-(benzylamino)quinazolin-6-yl]-2-chloro-3-pyridyl]methanesulfonamide, reference compound]	++++ (value is 2 nM or less)	> 90	20 to 200	10 to 80	++++ (value is greater than 60 minutes)			
CS(=O)(=O)Nc1cc(-c2ccc3ncnc(Nc4ccc(F)c(Cl)c4)c3c2)cnc1Cl [Comparative Compound 2, reference compound]	++++ (value is 2 nM or less)	> 90	2 to 20	> 90	++++ (value is greater than 60 minutes)			
CS(=O)(=O)Nc1cncc(-c2ccc3ncnc(NCc4ccccc4)c3c2)c1 [Comparative Compound 3, reference compound]	++ (value is greater than 20 nM and less than or equal to 200 nM)				+ (value is 15 minutes or less)	*** (value is greater than 80% and less than or equal to 90%)	**** (value is greater than 90%)	
C[C@@H](Nc1ncnc2ccc(-c3cnc(Cl)c(NS(C)(=O)=O)c3)cc12)c1ccccc1 [Compound 2R, N-(2-chloro-5-(4-((1R-phenylethyl)amino)quinazolin-6-yl)pyridin-3-yl)methanesulfonamide]		> 90	2 to 20	80 to 90	++++ (value is greater than 60 minutes)			2 to 20
C[C@H](Nc1ncnc2ccc(-c3cnc(Cl)c(NS(C)(=O)=O)c3)cc12)c1ccccc1 [Compound 2S, N-(2-chloro-5-(4-((1S-phenylethyl)amino)quinazolin-6-yl)pyridin-3-yl)methanesulfonamide]	++++ (value is 2 nM or less)	> 90	> 200	< 10	++++ (value is greater than 60 minutes)			
CC(Nc1c(C#N)cnc2ccc(-c3cnc(N)nc3)cc12)c1ccccc1 (centres unmarked) [Compound 53, 6-(2-aminopyrimidin-5-yl)-4-(1-phenylethylamino) quinoline-3-carbonitrile]	+ (value is greater than 200 nM)	10 to 80	2 to 20	80 to 90	+++ (value is greater than 30 minutes and less than or equal to 60 minutes)			
C[C@@H](Nc1c(C#N)cnc2ccc(-c3cnc(N)nc3)cc12)c1ccccc1 [Compound 53R, (R)-6-(2-aminopyrimidin-5-yl)-4-((1-phenylethyl)amino)quinoline-3-carbonitrile]	+ (value is greater than 200 nM)	10 to 80	2 to 20	> 90	+++ (value is greater than 30 minutes and less than or equal to 60 minutes)			
CC(Nc1c(C#N)cnc2ccc(-c3cnc4[nH]ncc4c3)cc12)c1ccccc1 (centres unmarked) [Compound 54, 4-(1-phenylethylamino)-6-(1H-pyrazolo[3,4-b]pyridin-5-yl)quinoline-3-carbonitrile]	+ (value is greater than 200 nM)	10 to 80	2 to 20	> 90	+ (value is 15 minutes or less)			
C[C@@H](Nc1ncnc2ccc(-c3cnc(Cl)c(NS(C)(=O)=O)c3)cc12)c1ccc(F)cc1 [Compound 111R, N-(2-chloro-5-(4-((1R-(4-fluorophenyl)ethyl)amino)quinazolin-6-yl)pyridin-3-yl)methanesulfonamide]		> 90	20 to 200	10 to 80	++++ (value is greater than 60 minutes)			2 to 20
